Patent US20190314379A1, “METHODS OF USING CANNABINOID CB2 RECEPTOR AGONIST COMPOSITIONS TO SUPPRESS AND PREVENT OPIOID TOLERANCE AND WITHDRAWAL IN A SUBJECT” (Indiana University Research and Technology Corporation, priority 2018, published 2019)
Entries after “also recorded” stand apart in the source; their conditions may differ.

Legend:
[1] = biological target: T1, human CB2 (Homo sapiens, UniProt P34972); details: at 20 nM; cited from earlier work
[2] = biological target: T1, human CB2; assay: Phosphorylated ERK1/2 detection, HEK hCB2; assay type: cell-based; design: expressed in transfected cells; details: for Emax: read-out: pERK1/2 Emax
[3] = system: naloxone-precipitated opioid withdrawal; assay: Naloxone-precipitated opioid withdrawal in paclitaxel-treated mice; assay type: in vivo, mouse
Procedure: Alter the last injection of morphine (on day 28 for two-phase treatments, on day 13 for coadministration treatment), we challenged WT or CB2KO mice from experiments 2, 3, and 4 with vehicle, followed 30 minutes later by naloxone (5 mg/kg i.p.) to precipitate opioid receptor-mediated withdrawal. Mice were video-recorded for subsequent scoring of withdrawal-like behaviors for a 30-minute interval after challenge with vehicle or naloxone.
Mice were video-taped, and the number of jumps was scored in 5-minute intervals for a total observation period of 30 minutes after challenge with either saline or naloxone (5 mg/kg i.p.).

[4] = biological target: T2, mouse CB2 receptors (Mus musculus, UniProt P47936); assay: Arrestin recruitment (PathHunter CHO K1CNR2, enzyme complementation); assay type: cell-based
T2 construct: expressed in transfected cells
T2 sequence (P47936 whole entry): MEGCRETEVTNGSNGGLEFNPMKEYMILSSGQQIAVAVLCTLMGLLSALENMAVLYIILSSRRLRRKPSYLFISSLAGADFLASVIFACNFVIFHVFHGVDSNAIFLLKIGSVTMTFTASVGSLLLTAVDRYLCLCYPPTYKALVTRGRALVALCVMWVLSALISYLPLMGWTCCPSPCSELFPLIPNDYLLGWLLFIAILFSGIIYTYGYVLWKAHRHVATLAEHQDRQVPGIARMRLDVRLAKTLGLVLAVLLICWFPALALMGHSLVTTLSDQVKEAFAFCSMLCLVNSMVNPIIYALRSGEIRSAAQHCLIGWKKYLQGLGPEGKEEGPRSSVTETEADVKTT

[5] = biological target: T1, human CB2; assay: Forskolin-stimulated cAMP accumulation (cyclase), HEK hCB2; assay type: cell-based; design: expressed in transfected cells; time of inhibition of forskolin-stimulated cAMP accumulation: dose or concentration left out as unconfirmed
[6] = biological target: T2, mouse CB2 receptors; assay: On-cell western for receptor internalization, HEK mCB2; assay type: cell-based
[7] = biological target: CB1 (Homo sapiens, UniProt P21554); details: at 100 μM; cited from earlier work
Chain of CB1 (P21554 whole entry, species assumed): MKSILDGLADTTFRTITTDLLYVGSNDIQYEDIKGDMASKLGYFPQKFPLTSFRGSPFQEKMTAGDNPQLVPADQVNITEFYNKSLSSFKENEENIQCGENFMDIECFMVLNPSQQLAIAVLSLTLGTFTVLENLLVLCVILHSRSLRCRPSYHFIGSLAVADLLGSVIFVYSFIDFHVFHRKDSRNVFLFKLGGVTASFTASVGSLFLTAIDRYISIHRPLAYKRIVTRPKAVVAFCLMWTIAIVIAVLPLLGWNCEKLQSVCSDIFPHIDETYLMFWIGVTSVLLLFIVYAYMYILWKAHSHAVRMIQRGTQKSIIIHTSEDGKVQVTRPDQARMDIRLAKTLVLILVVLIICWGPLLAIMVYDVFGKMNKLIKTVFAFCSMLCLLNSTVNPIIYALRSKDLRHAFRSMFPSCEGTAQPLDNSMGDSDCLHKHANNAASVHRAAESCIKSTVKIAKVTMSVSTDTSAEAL

[8] = system: paclitaxel-induced cold allodynia; assay: Paclitaxel-induced cold allodynia (acetone); assay type: in vivo, mouse; details: for cold allodynia, chronic phase 1 treatment: 3 mg/kg per day i.p.×12 days
Procedure: In all studies, the experimenter was blinded to the treatment condition, and mice were randomly assigned to experimental conditions. Paclitaxel (4 mg/kg i.p.) was administered four times on alternate days (cumulative dose, 16 mg/kg i.p.) to induce neuropathic pain as described previously by our group (Deng et al., 2015). Control mice received an equal volume of cremophor-vehicle. Development of paclitaxel-induced allodynia was assessed on day 0, 4, 7, 11, and 14.
Effects of pharmacologic manipulations were assessed at 30 minutes after drug administration during the maintenance phase of paclitaxel-induced neuropathy (i.e., beginning day 18-20 after initial paclitaxel injection).
In experiments 2 and 3, pharmacologic manipulations were performed once daily for 12 consecutive days in each of the two phases of chronic treatment. Four days separated phase 1 and phase 2 chronic dosing in all studies comprising two phases of chronic dosing. Experiments 2 and 3 were performed concurrently using overlapping cohorts that were tested with a single vehicle (phase 1), vehicle (phase 2) group.
We then assessed the antiallodynic efficacy of chronic systemic administration of vehicle or morphine (10 mg/kg per day i.p.×12 days) administered during phase 2 in the same animals. Responsiveness to mechanical and cold stimulation was evaluated on treatment days 1, 4, 8, and 12 during phase 1 and on treatment days 16, 19, 23, and 27 during phase 2 (i.e., phase 2 started on day 16).
In experiment 4, we evaluated the impact of coadministration of morphine (10 mg/kg i.p.×12 days) with a submaximal dose of LY 2828360 (0.1 mg/kg per day i.p.×12 days) in WT and CB2 KO mice.
Response time (seconds) spent attending to (i.e., elevating, licking, biting, or shaking) the paw stimulated with acetone (Sigma-Aldrich) was measured in triplicate for each paw to assess cold allodynia as previously published. An acetone bubble (approximately 5 to 6 p.1) formed at the end of a blunt 1-ml syringe hub was gently applied to the plantar surface of the hind paw. Care was taken not to apply mechanical stimulation to the hind paw with the syringe itself. The total time the animal spent attending to the acetone-stimulated paw (i.e., elevation, shaking, or licking) was recorded over 1 minute after acetone application. Acetone was applied three times to each paw with a 3-minute interval between applications. Values for each animal were calculated as the mean of six determinations of acetone responsiveness derived from each mouse.

[9] = biological target: T1, human CB2; assay: Myo-inositol phosphate-1 (IP1) accumulation, HEK hCB2; assay type: cell-based; design: expressed in transfected cells; details: via human CB2
[10] = in vivo; cited from earlier work
[11] = biological target: T1, human CB2; assay: On-cell western for receptor internalization, HEK hCB2; assay type: cell-based; design: expressed in transfected cells
[12] = paclitaxel-treated WT mice, naloxone 5 mg/kg i.p.
[13] = WT mice, 3 mg/kg per day i.p.×12 days after phase 1 morphine

T1 sequence (P34972 whole entry): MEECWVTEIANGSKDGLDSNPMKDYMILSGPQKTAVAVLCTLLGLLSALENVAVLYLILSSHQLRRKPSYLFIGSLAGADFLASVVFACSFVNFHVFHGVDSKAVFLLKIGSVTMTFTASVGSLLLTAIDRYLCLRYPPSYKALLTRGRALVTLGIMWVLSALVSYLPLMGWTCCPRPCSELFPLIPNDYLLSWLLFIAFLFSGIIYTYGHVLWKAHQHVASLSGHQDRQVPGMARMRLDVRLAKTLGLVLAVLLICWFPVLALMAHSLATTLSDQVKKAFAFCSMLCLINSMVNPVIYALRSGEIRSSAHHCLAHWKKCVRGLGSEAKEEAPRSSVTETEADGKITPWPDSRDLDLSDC

Cc1nc(N2CCN(C)CC2)c2nc(-c3ccccc3Cl)n(C3CCOCC3)c2n1 [LY2828360, 8-(2-chlorophenyl)-2-methyl-6-(4-methylpiperazin-1-yl)-9-(tetrahydro-2H-pyran-4-yl)-9H-purine]
maximal stimulation of CB2 [1]: approximately 87%
ERK1/2 phosphorylation time course ([2]; hCB2, 1 pM): increased ERK1/2 phosphorylation after 30 minutes, but not at 5 minutes
ERK1/2 phosphorylation after PTX treatment ([2]; hCB2, 1 pM, PTX): abolished ERK1/2 phosphorylation
stimulated phosphorylation of ERK1/2 in presence of SR144528 ([2]; hCB2, SR144528 (1 pM)): completely blocked
Emax ([2]; human CB2, 05 mins incubation): 22.1%
Emax ([2]; human CB2, 30 mins incubation): 32.3%
naloxone-precipitated jumps, WT compared with CB2KO mice ([3]; coadministration of LY2828360 with morphine, P=0.055): trended to produce a lower number of naloxone-precipitated jumps
number of jumps, LY (1)-Mor (2) vs Veh (1)-Mor (2) ([3]; paclitaxel-treated CB2KO mice): did not differ
number of jumps, LY (1)-Mor (2) vs Veh (1)-Veh (2) ([3]; paclitaxel-treated CB2KO mice): trended higher
number of jumps, LY (1)-Mor (2) vs Veh (1)-Mor (2) [3, 12]: did not differ
number of naloxone-precipitated jumps, LY (1)-Mor (2) vs Veh (1)-Veh (2) [3, 12]: did not differ
arrestin recruitment ([4]; CHO cells expressing mCB2, 90-minute drug incubation): failed to do so
Emax ([4]; mouse CB2, 90 mins incubation, read-out: Arrestin Emax): 97.9%
inhibition of forskolin-stimulated cAMP accumulation ([5]; hCB2, 5 minutes of treatment): had no effect
inhibition of forskolin-stimulated cAMP accumulation ([5]; hCB2, 35 minutes): potent and efficacious agonist
inhibition of forskolin-stimulated cAMP accumulation in presence of SR144528 ([5]; hCB2, 35 minutes): completely blocked
time of inhibition of forskolin-stimulated cAMP accumulation ([5]; hCB2, time course): 35 min
inhibition of cAMP accumulation after PTX pretreatment ([5]; hCB2, time course, PTX): abolished this effect
Emax ([5]; human CB2, 35 mins incubation, read-out: Cyclase Emax): 42.8%
receptor internalization ([6]; HEK mCB2): failed to internalize the receptor; also recorded: less potent and efficacious
EC50 ([6]; mouse CB2, 90 mins incubation, read-out: Internalization EC50): 0.0307 µM
Emax ([6]; mouse CB2, 90 mins incubation, read-out: Internalization Emax): 19.1%
maximal stimulation of CB1 [7]: 15%
time for responsiveness to cold stimulation to return to baseline ([8]; 3 mg/kg i.p. acute): 3 days
cold allodynia, chronic phase 1 treatment ([8]; CB2KO mice): failed to suppress
cold responsiveness, phase 2 treatment of morphine-tolerant mice ([8]; CB2KO mice, 3 mg/kg per day i.p.×12 days after phase 1 morphine): did not alter responsiveness to mechanical or cold stimulation
cold allodynia, coadministration with morphine ([8]; CB2KO mice, LY2828360 0.1 mg/kg with morphine 10 mg/kg per day×12 days): sustained antiallodynic efficacy was absent
development of tolerance to antiallodynic effect of phase 2 morphine, cold ([8]; CB2KO mice, LY2828360 phase 1, morphine phase 2): did not block the development of morphine tolerance
paclitaxel-induced cold allodynia, high dose ([8]; WT mice, 3 mg/kg i.p. acute): fully reversed paclitaxel-induced allodynia and normalized responses to pre-paclitaxel baseline levels
cold allodynia, chronic phase 1 treatment ([8]; WT mice): markedly suppressed paclitaxel-induced mechanical and cold allodynia throughout the observation interval
cold allodynia, phase 2 treatment of morphine-tolerant mice [8, 13]: fully reversed paclitaxel-induced allodynia and normalized responsiveness to pre-paclitaxel baseline levels
tolerance to phase 2 treatment, cold [8, 13]: tolerance did not develop
cold allodynia, coadministration with morphine ([8]; WT mice, LY2828360 0.1 mg/kg per day i.p.×12 days with morphine 10 mg/kg per day×12 days): normalized cold responsiveness on days 1 and 4
development of morphine tolerance under coadministration, cold ([8]; WT mice, LY2828360 0.1 mg/kg with morphine 10 mg/kg per day×12 days): morphine tolerance failed to develop
development of tolerance to antiallodynic effect of phase 2 morphine, cold ([8]; WT mice, LY2828360 3 mg/kg per day×12 days phase 1, morphine 10 mg/kg×12 days phase 2): prevented the development of morphine tolerance
paclitaxel-induced cold allodynia, acute dose response ([8]; WT mice, acute systemic (i.p.), dose-dependent): suppressed
cold allodynia at low doses vs cremophor-vehicle controls ([8]; WT mice, doses lower than 0.3 mg/kg i.p.): neuropathic pain was prominent
stability of antiallodynic efficacy (tolerance), cold ([8]; WT mice, phase 1, 3 mg/kg per day i.p.×12 days): stable throughout phase 1 treatment
IP1 accumulation [9]: did not affect IP1 accumulation
central nervous system (CNS) penetration [10]: good
receptor internalization ([11]; HEK hCB2): failed to internalize the receptor
Emax ([11]; human CB2, 90 mins incubation, read-out: Internalization Emax): 10.2%
